In ChEMBL document CHEMBL5678795 (Eur J Pharmacol, 1999):
Peptide text beside a SMILES is read from it.

Tests used:
[1] = Displacement of [125I]ET-1 from human ETB receptor expressed in green monkey COS7 cells Membrane assessed as inhibition constant incubated for 16 to 18 hrs by gamma counter analysis; format: cell membranes
[2] = Selectivity ratio of IC50 for human ETA receptor stably expressed in CHO cells Membrane to IC50 human ETB receptor stably expressed in CHO cells Membrane; details: condition cardiovascular disease; condition vascular disease
Endothelin-1 receptor [3] = target: T1, Endothelin-1 receptor (Homo sapiens, UniProt P25101); assay: Displacement of [125I]endhothelin-1 from human ETA receptor stably expressed in CHO cells Membrane assessed as inhibition constant at 25 degC incubated for 4 hrs by saturation binding assay; format: cell membranes
T1 sequence (P25101 whole entry): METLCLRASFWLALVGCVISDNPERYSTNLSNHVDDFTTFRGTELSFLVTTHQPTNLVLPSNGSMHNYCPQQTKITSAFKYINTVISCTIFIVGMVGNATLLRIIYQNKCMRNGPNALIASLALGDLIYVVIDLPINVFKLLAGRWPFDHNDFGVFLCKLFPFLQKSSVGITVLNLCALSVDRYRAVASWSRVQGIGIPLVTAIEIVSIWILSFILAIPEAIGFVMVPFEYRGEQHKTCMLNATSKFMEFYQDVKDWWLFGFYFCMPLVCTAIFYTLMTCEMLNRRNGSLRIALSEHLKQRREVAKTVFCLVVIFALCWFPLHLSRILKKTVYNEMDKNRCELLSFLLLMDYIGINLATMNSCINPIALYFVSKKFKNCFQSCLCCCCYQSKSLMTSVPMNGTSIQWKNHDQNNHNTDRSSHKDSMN

[4] = target: T2, Endothelin receptor type B (Homo sapiens, UniProt P24530); assay: Displacement of [125I]endhothelin-3 from human ETB receptor stably expressed in CHO cells Membrane assessed as inhibition constant at 25 degC incubated for 4 hrs by saturation binding assay; format: cell membranes
T2 sequence (P24530 whole entry): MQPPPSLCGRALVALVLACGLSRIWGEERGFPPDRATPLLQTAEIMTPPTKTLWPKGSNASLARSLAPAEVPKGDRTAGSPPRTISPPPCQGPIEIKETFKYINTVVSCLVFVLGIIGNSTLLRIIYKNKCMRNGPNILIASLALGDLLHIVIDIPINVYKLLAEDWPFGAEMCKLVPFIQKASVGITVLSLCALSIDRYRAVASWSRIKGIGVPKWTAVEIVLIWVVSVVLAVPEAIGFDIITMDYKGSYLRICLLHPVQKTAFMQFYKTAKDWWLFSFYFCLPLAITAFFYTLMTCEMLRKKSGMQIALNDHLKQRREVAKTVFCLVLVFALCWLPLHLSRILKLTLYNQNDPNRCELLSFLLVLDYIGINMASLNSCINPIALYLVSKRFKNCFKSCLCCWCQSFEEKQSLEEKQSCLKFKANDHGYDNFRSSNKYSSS

[5] = target: T2, Endothelin receptor type B; assay: Binding affinity to ETB receptor (unknown origin) assessed as inhibition constant
Endothelin-1 receptor [6] = target: T1, Endothelin-1 receptor; assay: Binding affinity to ETA receptor (unknown origin) assessed as inhibition constant
[7] = target: Endothelin receptor type B (Oryctolagus cuniculus, UniProt Q9N0W7); assay: Agonist activity to ETB receptor in rabbit pulmonary artery assessed as induction of vessel ring contraction; format: functional, tissue-based
Endothelin receptor type B (Oryctolagus cuniculus, UniProt Q9N0W7), sequence (Q9N0W7 whole entry): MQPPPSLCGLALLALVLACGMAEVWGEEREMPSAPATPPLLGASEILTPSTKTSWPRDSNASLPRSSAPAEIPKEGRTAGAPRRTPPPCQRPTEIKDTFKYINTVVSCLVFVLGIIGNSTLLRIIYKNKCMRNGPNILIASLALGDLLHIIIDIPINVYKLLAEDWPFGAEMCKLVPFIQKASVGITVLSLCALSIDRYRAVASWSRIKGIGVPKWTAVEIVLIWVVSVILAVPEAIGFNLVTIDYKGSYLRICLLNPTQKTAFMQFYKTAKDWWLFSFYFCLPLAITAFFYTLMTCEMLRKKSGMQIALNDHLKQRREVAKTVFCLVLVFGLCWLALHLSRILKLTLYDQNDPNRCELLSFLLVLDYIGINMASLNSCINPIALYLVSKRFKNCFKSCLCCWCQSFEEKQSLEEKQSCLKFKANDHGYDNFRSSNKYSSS

Ki [5]	SMILES	Ratio IC50 [2]	further results
–	Cc1cc2c(cc1CC(=O)c1sccc1S(=O)(=O)Nc1onc(C)c1Cl)OCO2 [SITAXENTAN]	>10000	Ki [1]: > 4300 nM
–	CCCc1cc(C(=O)O)ccc1OC(C(=O)NS(=O)(=O)c1ccc(C(C)C)cc1)c1ccc2c(c1)OCO2 [L-754142]	42	Ki (Endothelin-1 receptor [3]): 33.6 nM; Ki [4]: 1420 nM
> 130 nM	COc1ccccc1Oc1c(NS(=O)(=O)c2ccc(C)cn2)nc(-c2ccnc(-c3nnn[nH]3)c2)nc1OCCO [CLAZOSENTAN]	>1000	–
–	CCCOc1ccc2c(c1)[C@@H](c1ccc(OC)cc1OCCO)[C@H](C(=O)O)[C@H]2c1ccc2c(c1)OCO2	1000	–
–	CCCOc1ccc2c(c1)[C@@H](c1ccc(OC)cc1OCC(=O)O)[C@H](C(=O)O)[C@H]2c1ccc2c(c1)OCO2 [SB-209670]	90	–
–	CC[C@H](C)[C@H](NC(=O)[C@@H](NC(=O)[C@H](CC(=O)O)NC(=O)[C@H](CCC(N)=O)NC(=O)[C@H](Cc1cnc[nH]1)NC(=O)[C@@H]1CSSC[C@H](N)C(=O)N[C@@H]([C@@H](C)O)C(=O)N[C@H]2CSSC[C@H](NC(=O)[C@H](CCC(=O)O)NC(=O)[C@H](CCC(=O)O)NC(=O)[C@H](CC(=O)O)NC(=O)[C@H]([C@@H](C)O)NC(=O)[C@H](CCSC)NC(=O)[C@H](CC(=O)O)NC(=O)[C@H](CC(N)=O)NC2=O)C(=O)N[C@@H](CC(C)C)C(=O)N[C@@H](CC(N)=O)C(=O)N[C@@H](Cc2ccccc2)C(=O)N1)C(C)C)C(=O)N[C@@H](Cc1c[nH]c2ccccc12)C(=O)O	–	EC50 [7]: 1.57 nM
7300 nM	CC(C)C[C@H](NC(=O)N1CCCCCC1)C(=O)N[C@H](Cc1cn(C)c2ccccc12)C(=O)N[C@H](Cc1ccccn1)C(=O)O	–	–
–	CC(C)C[C@@H]1NC(=O)[C@@H](c2cccs2)NC(=O)[C@H](CC(=O)O)NC(=O)[C@H](CC(=O)N2CCN(c3ccccc3)CC2)NC(=O)[C@@H](CC(=O)O)NC(=O)[C@@H](Cc2c[nH]c3ccccc23)NC1=O (HELM PEPTIDE1{D.D.[O=C([C@H](N[*:1])c1cccs1)[*:2]].L.[dW].[dD]}|CHEM1{[c1ccc(N2CCN([*:1])CC2)cc1]}$PEPTIDE1,CHEM1,1:R3-1:R1|PEPTIDE1,PEPTIDE1,1:R1-6:R2$$$V2.0) [listing 2 of 2 here]	454	–
960 nM	COc1cc(OC)nc(O[C@@H](C(=O)O)C(OC)(c2ccccc2)c2ccccc2)n1	160	Ki (Endothelin-1 receptor [6]): 6 nM

SMILES	Ki [5]	Ratio IC50 [2]	further results
CC(C)C[C@@H]1NC(=O)[C@@H](c2cccs2)NC(=O)[C@H](CC(=O)O)NC(=O)[C@H](CC(=O)N2CCN(c3ccccc3)CC2)NC(=O)[C@@H](CC(=O)O)NC(=O)[C@@H](Cc2c[nH]c3ccccc23)NC1=O (HELM PEPTIDE1{D.D.[O=C([C@H](N[*:1])c1cccs1)[*:2]].L.[dW].[dD]}|CHEM1{[c1ccc(N2CCN([*:1])CC2)cc1]}$PEPTIDE1,CHEM1,1:R3-1:R1|PEPTIDE1,PEPTIDE1,1:R1-6:R2$$$V2.0) [listing 1 of 2 here]	590 nM	–	Ki (Endothelin-1 receptor [6]): 1.3 nM
